Measurements taken from patent US20140200215A1, “LYSOPHOSPHATIDIC ACID RECEPTOR ANTAGONISTS” (INTERMUNE, INC., priority 2013, published 2014).

Experiments:
Format in all cases: cell-based
Human LPA1 [1] = molecular target: T1, Human LPA1 (Homo sapiens, UniProt Q92633); assay: Beta-Arrestin based assay for human LPA1R antagonists (PathHunter); details: CHO cells expressing ProLink tagged human LPA1R; antagonist mode, 0.5 micromolar LPA
Description: Beta-Arrestin Based Assays for Human LPA1R Antagonists and Agonists
A CHO cell line stably expressing the ProLink™ tagged human LPA1R was obtained from DiscoverX Inc, Fremont, Calif. In this system, β-Arrestin was fused to an N-terminal deletion mutant of β-galactosidase (termed the enzyme acceptor or EA), the human LPA1R was fused to a smaller (42 amino acids) weakly complementing fragment termed ProLink™. […] Cell handling and assays were performed according to protocols specified in the PathHunter® assays kits (DiscoverX, Fremont, Calif.). Assays were performed in quadruplicate in white 384 well plates. End point luminescence data were plotted and fit to a 4 parameter logistic function to obtain IC50 values. For antagonist assays, an […] concentration of agonist (LPA) equal to 0.5 micromolar was used.

[2] = system: primary fibroblasts (including lung, dermal), HFL-1, 3T3 and CHO cells expressing LPA1R; assay: LPA1 migration assay (Oris cell migration); details: inhibition of cell migration in response to chemoattractant (LPA, serum)
Text: Migration of primary fibroblasts (including lung, dermal), HFL-1, 3T3 and CHO cells expressing LPA1R were monitored using the Oris™ assay (Platypus Technologies, Madison, Wis.). These cells were dye (Cell Tracker Green™) loaded and serum starved for 12-24 hrs. In response to chemoattractants such as LPA and serum, the cells migrated inward in to the exclusion (detection) zone. After fixing, fluorescent cells in the detection zone were counted using a high content reader. The ability of LPA1 antagonists to inhibit cell migration is quantified by plotting cell number vs. compound concentration and curve fitting the resulting dose-response curve to a 4 parameter logistic function.

Human LPA1 [3] = molecular target: T1, Human LPA1; assay: LPA1 calcium flux assay; parameters: the full-length cDNA for human LPA1 is obtained by PCR of the reverse transcription reaction; expressed in transfected cells; details: human LPA1 expressing CHO cells, stimulated with 10 nM LPA; read-out: Ca Flux LPA1 IC50
Description: Establishment of a CHO Cell Line Stably Expressing Human LPA1
A 1.1 kb cDNA encoding the human LPA1 receptor is cloned from human lung. Human lung RNA (Clontech Laboratories, Inc. USA) is reverse transcribed using the RETROscript kit (Ambion, Inc.) and the full-length cDNA for human LPA1 is obtained by PCR of the reverse transcription reaction. The nucleotide sequence of the cloned human LPA1 is determined by sequencing and is confirmed to be identical to the published human LPA1 sequence (An et al. Biochem. Biophys. Res. Commun. 231:619 (1997). The cDNA is cloned into the pCDNA5 pcDNA5/FRT expression plasmid and is transfected in CHO cells using lipofectamine 2000 (Invitrogen Corp., USA). Clones stably expressing human LPA1 are selected using hygromycin and identified as cells that show Ca-influx in response to LPA.
LPA1 and LPA3 Calcium Flux Assays
Human LPA1 or LPA3 expressing CHO cells were seeded at 20,000-45,000 cells per well in a 96-well poly-D-lysine coated plate one or two days before the assay. Prior to the assay, the cells were washed once with PBS and then cultured in serum-free media overnight. On the day of the assay, a calcium indicator dye (Calcium 4, Molecular Devices) in assay buffer (HBSS with Ca^2+ and Mg^2+ and containing 20 mM Hepes and 0.3% fatty-acid free human serum albumin) was added to each well and incubation continued for 1 hour at 37° C. 10 μl of test compounds in 2.5% DMSO were added to the cells and incubation continued at room temperature for 30 minutes. Cells were then stimulated by the addition of 10 nM LPA and intracellular Ca^2+ measured using the Flexstation 3 (Molecular Devices). IC50, were determined using Graphpad prism analysis of drug titration curves.

T1 sequence (Q92633 whole entry): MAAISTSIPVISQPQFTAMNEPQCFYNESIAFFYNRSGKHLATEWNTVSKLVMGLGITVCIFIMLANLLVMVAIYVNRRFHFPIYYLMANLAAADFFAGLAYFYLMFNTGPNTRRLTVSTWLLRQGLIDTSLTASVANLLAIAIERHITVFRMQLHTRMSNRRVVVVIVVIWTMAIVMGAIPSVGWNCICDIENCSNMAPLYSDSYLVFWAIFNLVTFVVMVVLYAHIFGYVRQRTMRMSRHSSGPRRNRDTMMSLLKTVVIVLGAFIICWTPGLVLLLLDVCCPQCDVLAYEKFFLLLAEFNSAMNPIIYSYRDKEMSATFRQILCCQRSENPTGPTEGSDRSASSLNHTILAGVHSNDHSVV

Compound | EC50 (Human LPA1 [1]) [µM] | EC50 [2] [µM] | IC50 (Human LPA1 [3]) [µM]
C[C@@H](OC(=O)Nc1c(-c2ccc(-c3cc4sc(C5(C(=O)O)CC5)cc4s3)cc2)nnn1C)c1ccccc1 [IT050] | < 0.05 | 0.05 to 0.5 | 0.05 to 0.5
Cc1noc(-c2ccc(-c3nc4ccc(C(=O)O)cc4s3)cc2)c1NC(=O)O[C@H](C)c1ccccc1 [IT010] | > 0.5 | > 0.5 | > 0.5
Cc1nsc(C#Cc2cc3sc(C4(C(=O)O)CC4)cc3s2)c1NC(=O)O[C@H](C)c1ccccc1 [IT034] | < 0.05 | 0.05 to 0.5 | 0.05 to 0.5
C[C@@H](OC(=O)Nc1c(-c2ccc(-c3ccc(C4(C(=O)O)CC4)cc3)cc2)nc2cnccn12)c1ccccc1 [IT032] | < 0.05 | 0.05 to 0.5 | 0.05 to 0.5
C[C@@H](OC(=O)Nc1c(-c2ccc(-c3ccc(C4(C(=O)O)CC4)cc3)cc2)nc2n1CCN(S(C)(=O)=O)C2)c1ccccc1 [IT021] | > 0.5 | > 0.5 | > 0.5
Cc1noc(C#Cc2ccc3cc(C4(CC(=O)O)CC4)ccc3c2)c1NC(=O)O[C@H](C)c1ccccc1 [IT003] | < 0.05 | 0.05 to 0.5 | < 0.05
C[C@@H](OC(=O)Nc1c(C#Cc2ccc3cc(C4(C(=O)O)CC4)ccc3c2)cnn1C1CC1)c1ccccc1 [IT015] | < 0.05 | 0.05 to 0.5 | 0.05 to 0.5
CCn1ncc(C#Cc2cc3sc(C4(C(=O)O)CC4)cc3s2)c1NC(=O)O[C@H](C)c1ccccc1 [IT070] | < 0.05 | < 0.05 | < 0.05
C[C@@H](OC(=O)Nc1c(-c2ccc(C#CC3(C(=O)O)CC3)cc2)cnn1C)c1ccccc1 [IT018] | > 0.5 | > 0.5 | > 0.5
Cc1nnn(-c2ccc(-c3cc4sc(C5(C(=O)O)CC5)cc4s3)cc2)c1NC(=O)O[C@H](C)c1ccccc1 [IT051] | 0.05 to 0.5 | 0.05 to 0.5 | 0.05 to 0.5
C[C@@H](OC(=O)Nc1c(-c2cc(F)c(-c3ccc(C4(C(=O)O)CC4)cc3)cc2F)nn2ncccc12)c1ccccc1 [IT061] | < 0.05 | 0.05 to 0.5 | < 0.05
C[C@@H](OC(=O)Nc1c(C#Cc2ccc3cc(C4(C(=O)O)CC4)ccc3c2)nnn1C)c1ccccc1 [IT064] | < 0.05 | 0.05 to 0.5 | < 0.05
Cc1noc(-c2ccc(-c3ccc(C4(CC(=O)O)CC4)cc3)cc2)c1NC(=O)O[C@H](C)c1ccccc1 [IT004] | < 0.05 | < 0.05 | < 0.05
CNC(=O)N1CCn2c(nc(-c3ccc(-c4ccc(C5(C(=O)O)CC5)cc4)cc3)c2NC(=O)O[C@H](C)c2ccccc2)C1 [IT022] | > 0.5 | > 0.5 | > 0.5
Cc1nsc(-c2ccc3cc(-c4ccc(C(=O)O)cc4)ccc3c2)c1NC(=O)O[C@H](C)c1ccccc1 [IT040] | > 0.5 | > 0.5 | > 0.5
C[C@@H](OC(=O)Nc1c(-c2cc(F)c(-c3cc4sc(C5(C(=O)O)CC5)cc4s3)cc2F)nnn1C)c1ccccc1 [IT071] | < 0.05 | 0.05 to 0.5 | 0.05 to 0.5
C[C@@H](OC(=O)Nc1c(-c2ccc(-c3ccc(C4(C(=O)O)CC4)cc3)cc2)nc2ncccn12)c1ccccc1 [IT043] | < 0.05 | 0.05 to 0.5 | 0.05 to 0.5

Compound | EC50 (Human LPA1 [1]) [µM] | EC50 [2] [µM] | IC50 (Human LPA1 [3]) [µM]
Cc1noc(-c2ccc(-c3ccc(C4(C(=O)O)CCOCC4)cc3)c(F)c2)c1NC(=O)O[C@H](C)c1ccccc1 [IT028] | < 0.05 | < 0.05 | < 0.05
C[C@@H](OC(=O)Nc1c(-c2ccc(-c3cc4sc(C5(C(=O)O)CC5)cc4s3)cc2)cnn1C)c1ccccc1 [IT056] | < 0.05 | 0.05 to 0.5 | 0.05 to 0.5
C[C@@H](OC(=O)Nc1c(-c2ccc(-c3ccc(C4(C(=O)O)CC4)cc3)cc2)nc2cccnn12)c1ccccc1 [IT041] | > 0.5 | > 0.5 | 0.05 to 0.5
Cc1nsc(-c2ccc([C@H]3CC[C@@H](C(=O)O)CC3)cc2)c1NC(=O)O[C@H](C)c1ccccc1 [IT007] | > 0.5 | > 0.5 | –
C[C@@H](OC(=O)Nc1c(C(F)(F)F)nnn1-c1ccc(-c2ccc(C3(C(=O)O)CC3)cc2)cc1)c1ccccc1 [IT072] | < 0.05 | > 0.5 | –
Cc1nsc(-c2ccc(C34CCC(C5(C(=O)O)CC5)(CC3)CC4)cc2)c1NC(=O)O[C@H](C)c1ccccc1 [IT093] | > 0.5 | > 0.5 | –
Cc1nsc(-c2ccc3cc(C4CCC(C(=O)O)CC4)ccc3c2)c1NC(=O)O[C@H](C)c1ccccc1 (stereo partly shown) [IT054] | > 0.5 | > 0.5 | –
Cc1nsc(-c2ccc([C@H]3CC[C@H](C(=O)O)CC3)cc2)c1NC(=O)O[C@H](C)c1ccccc1 [IT008] | > 0.5 | > 0.5 | –
C[C@@H](OC(=O)Nc1c(C#Cc2nc3sc(C4(C(=O)O)CC4)cc3s2)cnn1C)c1ccccc1 [IT095] | < 0.05 | < 0.05 | –
C[C@@H](OC(=O)Nc1c(-c2cc(F)c(-c3ccc(C4(C(=O)O)CC4)cc3)cc2F)oc2ccccc12)c1ccccc1 [IT075] | < 0.05 | 0.05 to 0.5 | –
Cc1nsc(-c2ccc(-c3ccc(C4(C(=O)O)CC4)cc3)cc2)c1NC(=O)OC(c1ccccc1)C(F)(F)F (single isomer, unassigned) [IT079] | > 0.5 | > 0.5 | –
C[C@@H](OC(=O)Nc1c(C#Cc2cc3sc(C4(C(=O)NS(C)(=O)=O)CC4)cc3s2)cnn1C)c1ccccc1 [IT098] | < 0.05 | < 0.05 | –
C[C@@H](OC(=O)Nc1c(-c2ccc(-c3ccc(C4(C(=O)O)CC4)cc3)cc2)cnn1C(F)(F)F)c1ccccc1 [IT094] | < 0.05 | 0.05 to 0.5 | –
CC(C)OC(=O)C1(c2cc3sc(C#Cc4cnn(C)c4NC(=O)O[C@H](C)c4ccccc4)cc3s2)CC1 [IT086] | 0.05 to 0.5 | > 0.5 | –
Cc1noc(-c2ccc(-c3ccc(C4(C(=O)O)CC4)cc3)cc2)c1NC(=O)O[C@H]1CCCc2ccccc21 (single isomer, unassigned) [IT058] | > 0.5 | > 0.5 | –
Cc1nsc(C#Cc2ccc3c(c2)CCC(C(=O)O)C3)c1NC(=O)O[C@H](C)c1ccccc1 (single isomer, unassigned) [IT063] | > 0.5 | > 0.5 | –
Cc1nsc(C2CCC(c3ccc(C4(C(=O)O)CC4)cc3)CC2)c1NC(=O)O[C@H](C)c1ccccc1 (single isomer, unassigned) [IT059] | 0.05 to 0.5 | > 0.5 | –
